Measured values from ChEMBL document CHEMBL2176959, “Design and synthesis of potent, orally efficacious hydroxyethylamine derived β-site amyloid precursor protein cleaving enzyme (BACE1) inhibitors” (J Med Chem, 2012).

Assays:
[1] = in vitro; settings: pig, LLC-PK1
[2] = Oral bioavailability in Sprague-Dawley rat at 10 mg/kg; format: ADME, organism-based; settings: in vivo
[3] = Tmax in Sprague-Dawley rat at 10 mg/kg, po; format: ADME, organism-based; set-up: dose 10 mg/kg, route oral; settings: in vivo
[4] = Cmax in Sprague-Dawley rat at 10 mg/kg, po; format: ADME, organism-based; set-up: dose 10 mg/kg, route oral; settings: in vivo
[5] = AUC (0 to infinity) in Sprague-Dawley rat at 10 mg/kg, po; format: ADME, organism-based; set-up: time infinity, dose 10 mg/kg, route oral; settings: plasma
[6] = Volume of distribution at steady state in Sprague-Dawley rat at 2 mg/kg, iv; format: ADME, organism-based; set-up: dose 2 mg/kg, route intravenous; settings: in vivo, read-out: Vdss
[7] = Plasma concentration in Sprague-Dawley rat at 30 mg/kg, po at 4 hrs; format: ADME, organism-based; set-up: dose 30 mg/kg, route oral
[8] = Drug uptake in Sprague-Dawley rat CSF at 30 mg/kg, po at 4 hrs; format: ADME, organism-based; set-up: dose 30 mg/kg, route oral; settings: cerebrospinal fluid, read-out: Drug uptake

Row | Compound | Papp at 2 h [1] | bioavailability [2] | Tmax [3] | Cmax [4] | AUC(0-inf) [5] | Vd [6] | concentration at 4 h [7] | concentration at 4 h [8]
1 | COCC(=O)N[C@@H](Cc1cccc(-c2ccncc2)c1)[C@H](O)CN[C@H]1CC2(CCC2)Oc2ncc(CC(C)(C)C)cc21 | 22 ×10⁻⁶ cm/s | – | – | – | – | – | – | –
2 | COCC(=O)N[C@@H](Cc1cccc(-c2nccs2)c1)[C@H](O)CN[C@H]1CC2(CCC2)Oc2ncc(CC(C)(C)C)cc21 | – | 120% | 3.33 h | 1890 ng/mL | 9030 ng·h/mL | 2.19 L/kg | 3.27 µM | 52 nM
3 | C#Cc1cccc(C[C@H](NC(=O)COC)[C@H](O)CN[C@H]2CC3(CCC3)Oc3ncc(CC(C)(C)C)cc32)c1 | – | 100% | 5.33 h | 4860 ng/mL | 24200 ng·h/mL | 1.54 L/kg | 3.54 µM | 78 nM
4 | COCC(=O)N[C@@H](Cc1ccc(F)c(-c2nccs2)c1)[C@H](O)CN[C@H]1CC2(CCC2)Oc2ncc(CC(C)(C)C)cc21 | 28 ×10⁻⁶ cm/s | – | – | – | – | – | – | –
5 | COCC(=O)N[C@@H](Cc1cc(-c2nccs2)ccc1F)[C@H](O)CN[C@H]1CC2(CCC2)Oc2ncc(CC(C)(C)C)cc21 | 11 ×10⁻⁶ cm/s | – | – | – | – | – | – | –
